Assay results from patent publication US20170246144A1, “METHOD OF PREVENTING OR TREATING SPINOCEREBELLAR ATAXIA BY ADMINISTRATING SILIBININ” (National Taiwan Normal University, priority 2016, published 2017).

Experiments:
Assay type in all cases: cell-based, Human
SH-SY5Y cells [1] = assay: Annexin V-FITC/PI flow cytometry, apoptosis induced by MSG; settings: 10 μM, 100 mM MSG, 24 hours
Experimental: 1×10^6 SH-SY5Y cells were treated with 100 mM MSG and 15 μM SB or 10 μM MK801 (MK) for 24 hours. Cells were stained with Annexin-V/PI and the apoptosis was measured with a flow cytometry.
In order to detect the effects of silibinin in inhibiting the apoptosis induced by glutamate in SH-SY5Y cells. The cells were measured by flow cytometry using Annexin V-FITC/propidium iodide (PI) double-labeling method.
SH-SY5Y cells were seeded in dish and were treated with 100 mM MSG in combination of 15 μM silibinin or 10 μM MK801 for 24 hours. The cells were then trypsinized and collected by centrifugation at 2,000 rpm for […] followed by double-staining with Annexin V-FITC and PI. Stained cells were analyzed with a flow cytometry (FACS Sorter, Becton, Dickinson and Company). 10,000 cells were recorded in each experiment.

SH-SY5Y cells [2] = assay: Chemiluminescence (luminol) analysis of ROS induced by MSG
Experimental: FIG. 6A: The ROS productions in 1×10^6 SH-SY5Y cells were measured by chemiluminescence (CL) analysis and luminol measurement, wherein the control group (Ctrl) was untreated SH-SY5Y cells or the cells were treated with 100 mM MSG, 100 mM MSG+15 μM SB or 100 mM MSG+10 μM MK801 (MK) for 24 hours.
It is known that the cyto-toxicity induced by glutamate is associated with mitochondria dysfunction and the increased production of ROS in neuron. In this embodiment, chemiluminescence analysis was performed to measure the level of ROS in order to understand whether silibinin can inhibit the accumulation of ROS associated with glutamatergic excitotoxicity. […] The emission spectrum was blue light which can be monitored by chemiluminescence detector.
SH-SY5Y cells were seeded in dish (1×10^6 cells/plate) for 24 hours, and then were pre-treated with 15 μM silibinin or 10 μM MK-801 for 1 hour followed by the treatment of 100 mM glutamate for 24 hours. The cells were then washed and suspended in 60 μL RIPA on ice bath followed by stirring and centrifugation at 13,000 rpm for […] at 4° C. The obtained protein sample (200 μL, 20 μg) was mixed with 0.5 mL of 0.2 mM luminol (Sigma). After 5 minutes, chemiluminescence analysis system (CLD-110, Tohoku Electronic Inc. Co. Japan) was performed to determine its chemiluminescence.

SH-SY5Y cells [3] = assay: JC-1 flow cytometry of mitochondria membrane potential (MMP)
Experimental: FIGS. 7A and 7B show the effects of SB on mitochondria membrane potential (MMP) in SH-SY5Y cells treated with MSG measured by JC-1 staining with a flow cytometry, wherein the control group (Ctrl) was untreated SH-SY5Y cells or the cells were treated with 100 mM MSG, 100 mM MSG+15 μM SB, 100 mM MSG+10 μM MK801 (MK) or 5 μM CCCP (disruptor of electron transport chain) for 12 hours. […] The results were shown as mean±SEM, n=3, *p<0.05, comparing to the MSG treatment group.
In the present embodiment, flow cytometry analysis was used to investigate whether silibinin can prevent the reduction of mitochondria membrane potential induced by glutamate in SH-SY5Y cells.
SH-SY5Y cells were seeded in 6 centimeter dish (1×10^6 cells/plate) for 24 hours, and then were pre-treated with 15 μM silibinin or 10 μM MK-801 for 1 hour followed by the treatment of 100 mM MSG for 12 hours. 5 μM carbonyl cyanide m-chlorophenylhydrazone (CCCP) was added to the positive control group to induce the depolarization of mitochondria membrane potential.
The treated cells were washed, centrifuged and collected, followed by PBS wash and JC-1 dye staining for 30 minutes. The stained cells were re-suspended using phosphate buffer solution and analyzed by a flow cytometry to obtain a 2-dimensional scatter plot. 10,000 cells were recorded for each experiment.

| SMILES | apoptosis (apoptotic cells) (SH-SY5Y cells [1]) [%] | extracellular ROS (SH-SY5Y cells [2]; 10 μM, 100 mM MSG, 24 hours) | inhibition at 10 µM (SH-SY5Y cells [2]; Homo sapiens, SH-SY5Y, 24 h, read-out: inhibition of intracellular ROS) [%] | MMP compared to Ctrl (SH-SY5Y cells [3]; 10 μM + 100 mM MSG) [%] | MMP retained (SH-SY5Y cells [3]; 5 μM CCCP, positive control, no MSG) [%] |
| --- | --- | --- | --- | --- | --- |
| C[C@]12N[C@H](Cc3ccccc31)c1ccccc12 [MK801] | 9.73 | unchanged | 80 | 90±5 | – |
| N#CC(C#N)=NNc1cccc(Cl)c1 [CCCP, carbonyl cyanide m-chlorophenylhydrazone] | – | – | – | – | 18±10 |
